Measured values taken from US12685309B2, “Agrochemical formulations” (BASF CORPORATION, priority 2020, dated 2026).

Settings: for Appearance of mixture with water (solubility): 400 g mixed with water and stirred, 400 g/l mixture
Description: 400 g of Dicamba with the 93.8 wt % purity as defined above in the experimental part were mixed with water and stirred to obtain a 400 g/l mixture of dicamba.
400 g of dicamba with a purity of 98 wt % were mixed with water.

| SMILES | Appearance of mixture with water (solubility) | Stability of the aqueous mixture on storage (400 g/l mixture in water, room temperature, two weeks) |
| --- | --- | --- |
| COc1c(Cl)ccc(Cl)c1C(=O)[O-].[K+] [Dicamba with the 93.8 wt % purity, potassium dicamba] | turbid mixture | serum formation and sedimentation of the undissolved components |
| COc1c(Cl)ccc(Cl)c1C(=O)O [dicamba with a purity of 98 wt %, 3,6-dichloro-2-methoxybenzoic acid] | clear solution |  |
